Reference: US20250188040A1, “PHARMACEUTICAL COMPOSITIONS COMPRISING WRN HELICASE INHIBITORS” (Vividion Therapeutics, Inc., priority 2022, published 2025)
Where two headings read alike, the source gives them in different places.

Key:
[1] = target: hWRN(519-1227)_C-H3CV-GFP-10His (Homo sapiens, UniProt Q14191); assay: Helicase Assay for WRN Inhibition (ATP-dependent, fluorescence based)
WRN C727 = target: T1, WRN C727 (Homo sapiens, UniProt Q14191); assay: Target engagement, in vitro (lysate), OCI-AML2; type: binding; conditions: read-out: OCI-AML2 WRN C727 TE50 in vitro (lysate)
T1 construct: endogenous in cells; host or cells: OCI-AML2
Procedure: Cells or cell lysates were treated with a dose response of compound followed by probe treatment, which labels solvent exposed cysteines. Proteins were enzymatically digested with trypsin and probe-labelled peptides were enriched with streptavidin. Isolated peptides were then separated using reversed-phase liquid chromatography on a C18 column (Dionex Ultimated 3000 nano-LC, Thermo). Peptides were analyzed by parallel reaction monitoring mass spectrometry (Exploris 120, Thermo).
Target engagement (%) is calculated relative to DMSO treated control samples.

SW480 cells = assay: Cell growth assay (CellTiter-Glo 2.0), SW480 MSS cell line; conditions: Homo sapiens, SW480, 120 h, read-out: Cell Growth Inhibition GI50 SW480
Procedure: (§1) The effects of compound on cellular viability were determined using the CellTiter-Glo® 2.0 Luminescent Cell Viability Assay (Promega, Madison, WI).
(§2) SW480 cells were seeded at 1,000 cells per well in Eagle's Minimum Essential Medium (EMEM) with 10% FBS. Both cell lines were seeded in a volume of 50 μL medium per well. […] The concentration range was adjusted as needed for compounds of different potencies. The cells treated with compounds were incubated for 5 days at 37° C. in 5% CO2. […] The plate was then read on a Clariostar plate reader (BMG Labtech, Cary, NC) in luminescence mode. The previously measured baseline cell viability was subtracted from the luminescence value of each well, and cell viability (% of DMSO) was plotted as a function of log compound concentration. The EC50 was then calculated for each compound using Dotmatics Software (San Diego, CA).

HCT 116 cells = assay: Cell growth assay (CellTiter-Glo 2.0), HCT 116 MSI-H cell line; conditions: Homo sapiens, HCT-116, 120 h, read-out: Cell Growth Inhibition GI50 HCT-116
Procedure: as §1, §2

[2] = WRN Helicase IC50, 30 min preincubation with ATP, 30 min reaction

T1 sequence (Q14191 whole entry): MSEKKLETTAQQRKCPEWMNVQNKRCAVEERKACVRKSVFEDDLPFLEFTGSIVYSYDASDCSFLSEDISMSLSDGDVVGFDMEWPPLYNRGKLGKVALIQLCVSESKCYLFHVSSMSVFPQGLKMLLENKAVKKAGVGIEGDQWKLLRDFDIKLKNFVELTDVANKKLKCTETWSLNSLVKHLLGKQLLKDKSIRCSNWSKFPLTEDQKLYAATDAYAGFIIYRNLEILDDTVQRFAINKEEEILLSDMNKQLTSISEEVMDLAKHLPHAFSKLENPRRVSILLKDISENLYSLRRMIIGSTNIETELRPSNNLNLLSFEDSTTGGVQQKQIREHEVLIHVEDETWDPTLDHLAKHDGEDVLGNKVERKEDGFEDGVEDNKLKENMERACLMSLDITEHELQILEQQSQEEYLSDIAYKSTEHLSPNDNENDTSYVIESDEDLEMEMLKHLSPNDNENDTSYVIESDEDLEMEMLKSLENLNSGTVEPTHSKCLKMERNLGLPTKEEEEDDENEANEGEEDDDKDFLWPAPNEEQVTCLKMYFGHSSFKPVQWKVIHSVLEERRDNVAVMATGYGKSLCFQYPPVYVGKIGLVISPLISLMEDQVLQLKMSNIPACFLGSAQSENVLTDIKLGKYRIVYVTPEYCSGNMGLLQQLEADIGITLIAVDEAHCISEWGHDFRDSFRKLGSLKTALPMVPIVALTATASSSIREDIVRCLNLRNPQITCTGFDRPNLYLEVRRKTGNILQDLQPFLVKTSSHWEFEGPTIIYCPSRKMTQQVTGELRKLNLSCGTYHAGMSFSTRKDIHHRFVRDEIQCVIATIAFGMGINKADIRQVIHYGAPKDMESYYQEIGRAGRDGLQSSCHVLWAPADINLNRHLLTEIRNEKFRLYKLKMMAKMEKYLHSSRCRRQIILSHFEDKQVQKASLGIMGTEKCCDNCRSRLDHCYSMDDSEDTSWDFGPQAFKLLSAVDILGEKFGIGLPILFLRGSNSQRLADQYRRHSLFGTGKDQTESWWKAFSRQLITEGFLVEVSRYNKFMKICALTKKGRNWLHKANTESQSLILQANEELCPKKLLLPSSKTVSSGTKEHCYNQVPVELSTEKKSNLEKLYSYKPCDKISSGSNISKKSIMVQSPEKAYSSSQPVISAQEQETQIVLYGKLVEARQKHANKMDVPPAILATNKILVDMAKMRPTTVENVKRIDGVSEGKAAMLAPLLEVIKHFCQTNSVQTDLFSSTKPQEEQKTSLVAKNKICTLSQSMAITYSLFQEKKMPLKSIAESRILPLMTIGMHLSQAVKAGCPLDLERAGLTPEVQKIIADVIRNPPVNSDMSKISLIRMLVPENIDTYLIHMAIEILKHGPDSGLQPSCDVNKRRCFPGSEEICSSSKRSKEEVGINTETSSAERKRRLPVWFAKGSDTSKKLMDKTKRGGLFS
Chain of hWRN(519-1227)_C-H3CV-GFP-10His (Q14191 519-1227): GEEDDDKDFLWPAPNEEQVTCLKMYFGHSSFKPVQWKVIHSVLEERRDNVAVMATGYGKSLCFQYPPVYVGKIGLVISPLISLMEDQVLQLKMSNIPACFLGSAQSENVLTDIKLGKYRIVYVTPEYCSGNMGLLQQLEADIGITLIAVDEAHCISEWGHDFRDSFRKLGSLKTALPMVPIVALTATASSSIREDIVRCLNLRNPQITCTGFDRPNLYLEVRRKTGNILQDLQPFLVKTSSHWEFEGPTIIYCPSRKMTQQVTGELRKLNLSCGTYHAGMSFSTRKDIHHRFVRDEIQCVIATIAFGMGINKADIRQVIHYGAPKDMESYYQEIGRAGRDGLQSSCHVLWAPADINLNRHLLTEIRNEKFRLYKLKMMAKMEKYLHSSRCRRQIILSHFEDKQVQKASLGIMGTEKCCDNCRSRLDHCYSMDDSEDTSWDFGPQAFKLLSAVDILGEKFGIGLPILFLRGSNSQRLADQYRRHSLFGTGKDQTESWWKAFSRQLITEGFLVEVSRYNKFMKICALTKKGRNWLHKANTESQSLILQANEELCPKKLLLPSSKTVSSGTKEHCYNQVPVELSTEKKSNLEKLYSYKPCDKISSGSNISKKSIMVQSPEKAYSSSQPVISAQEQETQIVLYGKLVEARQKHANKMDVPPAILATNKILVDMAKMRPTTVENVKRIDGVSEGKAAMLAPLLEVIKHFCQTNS

SMILES	IC50 [1, 2] [µM]	IC50 (WRN C727) [µM]	GI50 (SW480 cells) [µM]	GI50 (HCT 116 cells) [µM]	IC50 [1] [µM]
C[C@@H]1CC[C@H](c2ncc(C(=O)N[C@@H](C)/C=C/S(C)(=O)=O)c(Oc3ccccc3)n2)C1 (racemic) [Example 215]	2.2	9.62	8.2	1.4	–
CS(=O)(=O)/C=C/[C@H](Cc1ccccc1)NC(=O)c1cnc(C2CC2)nc1Oc1ccccc1 (single isomer, unassigned) [Example 20]	1.7	9.36	15.4	0.745	–
CS(=O)(=O)/C=C\[C@H](Cc1ccccc1)NC(=O)c1cnc(C2CC2)nc1Oc1ccccc1 (single isomer, unassigned) [Example 21]	6.1	> 100	14	3.1	–
CS(=O)(=O)/C=C\C1CN(C(=O)c2cnc(C3CC3)nc2Oc2ccccc2)C1 (single isomer, unassigned) [Example 23, (Z)-(2-cyclopropyl-4-phenoxypyrimidin-5-yl)(3-(2-(methylsulfonyl)vinyl)azetidin-1-yl)methanone]	–	8.83	2.8	1.1	3.4
CS(=O)(=O)/C=C/C1CN(C(=O)c2cnc(C3CC3)nc2Oc2ccccc2)C1 (single isomer, unassigned) [Example 24, (E)-(2-cyclopropyl-4-phenoxypyrimidin-5-yl)(3-(2-(methylsulfonyl)vinyl)azetidin-1-yl)methanone]	–	> 100	> 10	7.7	20
C[C@@H](/C=C/S(C)(=O)=O)NC(=O)c1cnc([C@H]2C[C@@H](C)C2)nc1Oc1ccccc1 (single isomer, unassigned) [Example 46]	0.287	0.99	> 11.9	0.124	–
C[C@@H](/C=C/S(C)(=O)=O)NC(=O)c1cnc([C@H]2C[C@H](C)C2)nc1Oc1ccccc1 (single isomer, unassigned) [Example 47]	0.77	0.99	> 12.7	0.291	–
CS(=O)(=O)/C=C/[C@@H](NC(=O)c1cnc([C@H]2C[C@@H](C)C2)nc1Oc1ccccc1)C1CC1 (single isomer, unassigned) [Example 48]	0.062	0.035	5.97	0.0365	–
CS(=O)(=O)/C=C/[C@@H](NC(=O)c1cnc([C@H]2C[C@H](C)C2)nc1Oc1ccccc1)C1CC1 (single isomer, unassigned) [Example 49]	0.092	0.22	5.19	0.0602	–
CS(=O)(=O)C=C1CN(C(=O)c2cnc([C@H]3C[C@@H](C)C3)nc2Oc2ccccc2)C1 (single isomer, unassigned) [Example 50, (2-((1s,3s)-3-methylcyclobutyl)-4-phenoxypyrimidin-5-yl)(3-((methylsulfonyl)methylene)azetidin-1-yl)methanone]	–	0.28	7.5	0.0947	0.22
CS(=O)(=O)C=C1CN(C(=O)c2cnc([C@H]3C[C@H](C)C3)nc2Oc2ccccc2)C1 (single isomer, unassigned) [Example 51, (2-((1r,3r)-3-methylcyclobutyl)-4-phenoxypyrimidin-5-yl)(3-((methylsulfonyl)methylene)azetidin-1-yl)methanone]	–	3.3	8.52	0.184	0.45
CC(C)(C)c1ncc(C(=O)N[C@H](/C=C/S(C)(=O)=O)Cc2ccccc2)c(Oc2ccccc2)n1 (single isomer, unassigned) [Example 60]	0.41	2.87	13	0.2	–
CC(C)(C)c1ncc(C(=O)N[C@H](/C=C\S(C)(=O)=O)Cc2ccccc2)c(Oc2ccccc2)n1 (single isomer, unassigned) [Example 61]	3.5	> 100	7.5	1.3	–
CC(/C=C/S(C)(=O)=O)NC(=O)c1cc(F)c(C2=CCCC2)nc1Oc1ccccc1 (stereo in doubt) [Example 206, (R,E)-6-(cyclopent-1-en-1-yl)-5-fluoro-N-(4-(methylsulfonyl)but-3-en-2-yl)-2-phenoxynicotinamide]	–	20	8.6	5.7	11
CC(C)[C@@H](/C=C/S(C)(=O)=O)NC(=O)c1cnc(C2CCCC2)nc1Oc1ccccc1 [Example 7, (S,E)-2-cyclopentyl-N-(4-methyl-1-(methylsulfonyl)pent-1-en-3-yl)-4-phenoxypyrimidine-5-carboxamide]	2.7	14	> 19.5	1.16	–
CS(=O)(=O)/C=C/[C@@H](NC(=O)c1cnc(C2CCCC2)nc1Oc1ccccc1)C1CC1 [Example 8, (S,E)-2-cyclopentyl-N-(1-cyclopropyl-3-(methylsulfonyl)allyl)-4-phenoxypyrimidine-5-carboxamide]	0.0758	0.195	6.72	0.044	–
CCN(CC)c1ncc(C(=O)N[C@H](/C=C/S(C)(=O)=O)C2CC2)c(Oc2ccccc2)n1 [Example 179, (S,E)-N-(1-cyclopropyl-3-(methylsulfonyl)allyl)-2-(diethylamino)-4-phenoxypyrimidine-5-carboxamide]	1.04	–	7	0.198	–
CN(c1ncc(C(=O)N[C@H](/C=C/S(C)(=O)=O)C2CC2)c(Oc2ccccc2)n1)C1CC1 [Example 180, (S,E)-2-(cyclopropyl(methyl)amino)-N-(1-cyclopropyl-3-(methylsulfonyl)allyl)-4-phenoxypyrimidine-5-carboxamide]	0.439	–	3.4	0.0582	–
[2H]c1c([2H])c([2H])c(Oc2nc(C(F)(F)C3CC3)ncc2C(=O)N[C@H](/C=C/S(C)(=O)=O)C2CC2)c([2H])c1[2H] [Example 229, (S,E)-N-(1-cyclopropyl-3-(methylsulfonyl)allyl)-2-(cyclopropyldifluoromethyl)-4-(phenoxy-d5)pyrimidine-5-carboxamide]	0.058	–	13	0.013	–
CS(=O)(=O)/C=C/[C@@H](NC(=O)c1ccc(C(F)(F)C2CC2)nc1Oc1ccccc1)C1CC1 [Example 234, (S,E)-N-(1-cyclopropyl-3-(methylsulfonyl)allyl)-6-(cyclopropyldifluoromethyl)-2-phenoxynicotinamide]	0.056	–	6.1	0.011	–
CS(=O)(=O)/C=C/[C@@H](NC(=O)c1cc(F)c(C(F)(F)C2CC2)nc1Oc1ccccc1)C1CC1 [Example 236, (S,E)-N-(1-cyclopropyl-3-(methylsulfonyl)allyl)-6-(cyclopropyldifluoromethyl)-5-fluoro-2-phenoxynicotinamide]	0.042	–	4.5	0.012	–
CSc1ncc(C(=O)NC/C=C/S(C)(=O)=O)c(Oc2ccccc2)n1 [Example 241, (E)-N-(3-(methylsulfonyl)allyl)-2-(methylthio)-4-phenoxypyrimidine-5-carboxamide]	12	–	> 10	8.4	–
C[C@@H](/C=C/S(C)(=O)=O)NC(=O)c1cc2ccccc2nc1Oc1ccccc1 [Example 242, (S,E)-N-(4-(methylsulfonyl)but-3-en-2-yl)-2-phenoxyquinoline-3-carboxamide]	9.8	–	> 10	2.8	–
CS(=O)(=O)/C=C/[C@@H](NC(=O)c1cnc(OC2CC2)nc1Oc1ccccc1)C1CC1 [Example 245, (S,E)-2-cyclopropoxy-N-(1-cyclopropyl-3-(methylsulfonyl)allyl)-4-phenoxypyrimidine-5-carboxamide]	1.1	–	36	0.14	–
CS(=O)(=O)/C=C/[C@@H](NC(=O)c1cnc(OCC(F)(F)F)nc1Oc1ccccc1)C1CC1 [Example 246, (S,E)-N-(1-cyclopropyl-3-(methylsulfonyl)allyl)-4-phenoxy-2-(2,2,2-trifluoroethoxy)pyrimidine-5-carboxamide]	8	–	16	0.64	–
Cc1cc(C(=O)N[C@@H](C)/C=C/S(C)(=O)=O)c(Oc2ccccc2)nc1C1CCCC1 [Example 262, (S,E)-6-cyclopentyl-5-methyl-N-(4-(methylsulfonyl)but-3-en-2-yl)-2-phenoxynicotinamide]	6.5	–	3	1.7	–
C[C@@H](C#CC(=O)N(C)C)NC(=O)c1cnc(C(C)(F)F)nc1Oc1ccccc1 [Example 263, (S)-2-(1,1-difluoroethyl)-N-(5-(dimethylamino)-5-oxopent-3-yn-2-yl)-4-phenoxypyrimidine-5-carboxamide]	5.5	–	2.3	1.4	–
C=C(CNC(=O)c1cnc(C2CC2)nc1Oc1ccccc1)S(C)(=O)=O [Example 287, 2-cyclopropyl-N-(2-(methylsulfonyl)allyl)-4-phenoxypyrimidine-5-carboxamide]	8	–	3.9	3.5	–
